Data as given in patent US8063071B2 (GlaxoSmithKline, LLC, priority 2007, dated 2011).
pIC50: −log10 of the molar value. Counter-ions that a name gives are not always drawn.

How the values were obtained:
[1] = biological target: T1, Recombinant human IKKβ (residues 1-737) (Homo sapiens, UniProt O14920); assay: IKK2 assay (TR-FRET); assay type: biochemical; settings: ATP 1 μM final, read-out: pIC50 against IKK2 (converted)
T1 construct: Recombinant human IKKβ (residues 1-737); GST (C); made in house
T1 sequence (O14920 1-737): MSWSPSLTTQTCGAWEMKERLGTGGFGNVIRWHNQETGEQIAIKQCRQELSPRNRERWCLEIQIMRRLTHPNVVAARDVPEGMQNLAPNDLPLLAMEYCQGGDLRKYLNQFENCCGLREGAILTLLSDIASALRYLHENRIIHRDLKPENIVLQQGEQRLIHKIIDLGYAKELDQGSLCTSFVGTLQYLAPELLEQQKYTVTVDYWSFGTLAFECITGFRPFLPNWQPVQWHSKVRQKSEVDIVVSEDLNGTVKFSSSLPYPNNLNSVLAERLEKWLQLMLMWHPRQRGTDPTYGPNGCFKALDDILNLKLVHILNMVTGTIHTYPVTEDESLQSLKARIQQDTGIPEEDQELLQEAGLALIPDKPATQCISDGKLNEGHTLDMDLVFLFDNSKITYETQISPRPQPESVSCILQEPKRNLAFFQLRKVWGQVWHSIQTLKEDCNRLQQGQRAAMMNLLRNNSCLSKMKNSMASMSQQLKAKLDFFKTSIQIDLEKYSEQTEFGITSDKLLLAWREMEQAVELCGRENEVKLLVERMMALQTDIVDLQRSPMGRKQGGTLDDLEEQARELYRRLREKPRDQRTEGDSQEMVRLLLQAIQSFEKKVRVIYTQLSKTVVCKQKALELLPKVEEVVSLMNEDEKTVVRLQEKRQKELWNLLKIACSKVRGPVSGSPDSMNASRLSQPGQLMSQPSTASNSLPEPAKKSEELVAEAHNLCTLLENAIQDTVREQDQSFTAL
Summary of the method: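 TR-FRET readout (665 nm over 620 nm Eu reference) of GST-IB Ser32/36 phosphorylation after 60 min detection. Reaction: 1 μM ATP, 25 nM substrate, 0.5-5 nM GST-fused IKKβ 1-737 from baculovirus, pH 7.4 HEPES buffer, 1.7% DMSO, 15 min room temperature, EDTA-terminated.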

[2] = tested on: human monocyte stimulated cytokine production (TNF-α); assay: Monocyte assay (LPS-stimulated TNF-α production); assay type: cell-based; settings: for pIC50: 24 h, 200 ng/mL LPS, TNF-α by ELISA; for inhibition at 0.3 µM: read-out: inhibition at 300 nM in the monocyte assay
Summary of the method: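 TNF-α release was measured by ELISA after 24 hrs at 37 C. Cells were stimulated with 200 ng/mL E. coli LPS, with compound added 30 minutes beforehand (0.1% DMSO vehicle). Cells were Ficoll/MACS-isolated CD14+ human monocytes adhered at 1×10^6 cells/mL, and viability was checked by trypan blue.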

SMILES | IC50 [1] | pIC50 [2] | inhibition at 0.3 µM [2]
CCS(=O)(=O)N1CCC(c2c[nH]c3c(C(N)=O)cc(-c4cccc(CNC[C@H]5CCCO5)c4)cc23)CC1 [Example 306, 3-[1-(ethylsulfonyl)-4-piperidinyl]-5-[3-({[(2R)-tetrahydro-2-furanylmethyl]amino}methyl)phenyl]-1H-indole-7-carboxamide trifluoroacetate] | ≤ 10 µM | ≥ 5.82 | –
CCC(CC)CNCc1ccc(-c2cc(C(N)=O)c3[nH]cc(C4CCN(S(=O)(=O)CC)CC4)c3c2)s1 [Example 192, 5-(5-{[(2-ethylbutyl)amino]methyl}-2-thienyl)-3-[1-(ethylsulfonyl)-4-piperidinyl]-1H-indole-7-carboxamide] | ≤ 10 µM | < 6.00 | –
CCS(=O)(=O)N1CCC(c2c[nH]c3c(C(N)=O)cc(-c4cncc(CNCCOC)c4)cc23)CC1 [Example 174, 3-[1-(ethylsulfonyl)-4-piperidinyl]-5-[5-({[2-(methyloxy)ethyl]amino}methyl)-3-pyridinyl]-1H-indole-7-carboxamide] | ≤ 10 µM | – | 0 to 60%
CCS(=O)(=O)N1CCC(c2c[nH]c3c(C(N)=O)cc(-c4csc(CN(C)CCN(C)C)c4)cc23)CC1 [Example 69, 5-(5-{[[2-(dimethylamino)ethyl](methyl)amino]methyl}-3-thienyl)-3-[1-(ethylsulfonyl)-4-piperidinyl]-1H-indole-7-carboxamide trifluoroacetate] | ≤ 10 µM | ≥ 5.82 | –
CCS(=O)(=O)N1CCC(c2c[nH]c3c(C(N)=O)cc(-c4cc(CNC)cc(CNC)c4)cc23)CC1 [Example 270, 5-{3,5-bis[(methylamino)methyl]phenyl}-3-[1-(ethylsulfonyl)-4-piperidinyl]-1H-indole-7-carboxamide trifluoroacetate] | ≤ 10 µM | < 6.00 | –
CCS(=O)(=O)N1CCC(c2c[nH]c3c(C(N)=O)cc(-c4ccc(N5CCOCC5)nn4)cc23)CC1 [Example 301, 3-[1-(ethylsulfonyl)-4-piperidinyl]-5-[6-(4-morpholinyl)-3-pyridazinyl]-1H-indole-7-carboxamide trifluoroacetate] | ≤ 10 µM | < 6.00 | –

More lines, main results first:

IC50 [1] | pIC50 [2] | SMILES | inhibition at 0.3 µM [2]
≤ 10 µM | ≥ 5.82 | CCS(=O)(=O)N1CCC(c2c[nH]c3c(C(N)=O)cc(-c4ccc(CN[C@@H](C)C(C)C)cc4)cc23)CC1 [Example 161, 5-[4-({[(1S)-1,2-dimethylpropyl]amino}methyl)phenyl]-3-[1-(ethylsulfonyl)-4-piperidinyl]-1H-indole-7-carboxamide trifluoroacetate] | –
≤ 10 µM | ≥ 5.82 | CCS(=O)(=O)N1CCC(c2c[nH]c3c(C(N)=O)cc(-c4ccc5c(c4)CNC5)cc23)CC1 [Example 418, 5-(2,3-dihydro-1H-isoindol-5-yl)-3-[1-(ethylsulfonyl)-4-piperidinyl]-1H-indole-7-carboxamide] | –
≤ 10 µM | ≥ 5.82 | CCS(=O)(=O)N1CCC(c2c[nH]c3c(C(N)=O)cc(-c4cccc(CNC(C)C)c4)cc23)CC1 [Example 25, 3-[1-(ethylsulfonyl)-4-piperidinyl]-5-(3-{[(1-methylethyl)amino]methyl}phenyl)-1H-indole-7-carboxamide] | –
≤ 10 µM | – | CCS(=O)(=O)N1CCC(c2c[nH]c3c(C(N)=O)cc(-c4cccc(CN(C)CC(N)=O)c4)cc23)CC1 [Example 39, 5-(3-{[(2-amino-2-oxoethyl)(methyl)amino]methyl}phenyl)-3-[1-(ethylsulfonyl)-4-piperidinyl]-1H-indole-7-carboxamide trifluoroacetate] | 0 to 60%
≤ 10 µM | ≥ 5.82 | CCNCc1cccc(-c2cc(C(N)=O)c3[nH]cc(C4CCN(S(=O)(=O)CC)CC4)c3c2)c1 [Example 23, 5-{3-[(ethylamino)methyl]phenyl}-3-[1-(ethylsulfonyl)-4-piperidinyl]-1H-indole-7-carboxamide] | –
≤ 10 µM | ≥ 5.82 | CCN1Cc2ccc(-c3cc(C(N)=O)c4[nH]cc(C5CCN(S(=O)(=O)CC)CC5)c4c3)cc2C1 [Example 419, 5-(2-ethyl-2,3-dihydro-1H-isoindol-5-yl)-3-[1-(ethylsulfonyl)-4-piperidinyl]-1H-indole-7-carboxamide] | –
